In PubChem BioAssay (NCI):
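Briefly, cells in 96-well plates were exposed to five compound concentrations for 48 h, and endpoints were estimated by linear interpolation. Here, GI50 denotes the concentration required for 50% inhibition of growth. At the TGI there is no net growth.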

The molecules below were run on 786-0 renal (assay: NCI tumour cell line growth inhibition, 48 h).

SMILES	GI50 [µM]	TGI [µM]
C=CC(=O)N1CC2(CCN(c3nc(OC4CCN(CCCOC)CC4)nc4c(OCC(F)(F)F)c(-c5c(C)ccc6[nH]ncc56)c(C5CC5)cc34)CC2)C1	4.4	18.2
FC(F)(F)c1cccc(Nc2nccc(-c3cnn4nc(-c5ccccc5)ccc34)n2)c1	5.22	11.2
C=C1C(=O)O[C@H]2[C@H]1CC/C(COC(=O)c1ccc3ccccc3c1)=C\CC[C@@]1(C)O[C@@H]21	1.18	2.65
CC[CH2][Sn]([CH2]CC)([O]C(=O)c1cccnc1SC)[O][Sn]([CH2]CC)([CH2]CC)[O]C(=O)c1cccnc1SC	0.313	0.675
Oc1ccc(CN2CCC(N3CCCCC3)CC2)c2cccnc12	19.3	> 100
CC[C@@]1(O)C(=O)OCc2c1cc1n(c2=O)Cc2c-1nc1cc3c(cc1c2CCl)OCO3	< 0.01	0.238
CC1(C)OC2[C@@H](CNC(=O)NC(=O)NC(=O)CI)O[C@@H](n3cnc4c(NC(=O)Nc5ccccc5)ncnc43)[C@H]2O1 (some centres undefined)	7.47	14.4
COc1cc(C2=C(c3ccccc3)COC2=O)cc(OC)c1OC	4.3	> 100
COc1cc(C2NC(=O)c3ccccc3N2)ccc1OCCCCCOc1c(OC)cc(C2=NOC(c3cc(OC)c(OC)c(OC)c3)C2)cc1OC (centres undefined)	27.4	> 78.7
O=C1Nc2c(C(F)(F)F)cccc2[C@]1(c1ccc(O)cc1)c1ccc(OC(F)(F)F)cc1	13.2	28.1
CS(=O)(=O)c1ccc([C@H]2O[C@@H](CO)C[C@]2(O)c2ccc(S(C)(=O)=O)cc2)cc1	> 100	> 100
CC(=O)OC[C@]1(C)C=C2C(=O)[C@](C)(O)C3(CC3)C(C)=C2[C@H]1O	0.0411	0.35
Oc1ccc(NCc2nc3ccccc3[nH]2)cc1	74.5	> 100
O=C1c2cc(Cl)ccc2S(=O)(=O)c2c(NCCCNCCO)nc3ccccc3c21	1.71	3.34
CC(C)(C)OC(=O)N1CCc2c(sc3ncnc(N/N=C/c4cccc5ccccc45)c23)C1	4.83	> 100
CC[C@@H]1CN(C)[C@H]2Cc3c([nH]c4ccccc34)C(=O)C[C@H]1C2C(=O)OC (some centres undefined)	–	> 100
CCN(CC)c1ccc(/C=C/c2ccc3cc(C)ccc3[n+]2CC)cc1	0.295	6.46
Cc1ccc2c(c1)[n+]([O-])c(N)n[n+]2[O-]	–	> 100
COC1/C=C\C=C(/C)C(=O)NC2=CC(=O)C(=O)C(=C2O)CC(C)CC(OC)C(O)C(C)/C=C(\C)C1OC(N)=O (centres undefined)	–	24.3
O=c1[nH]ncc(Br)c1Br	4.08	14.1
COc1ccc(-c2cc(=O)c3c(OC)c(OC)c(OC)cc3o2)cc1	–	> 100

The molecules below were run on ACHN renal (assay: NCI tumour cell line growth inhibition, 48 h).

SMILES	GI50 [µM]	TGI [µM]
C=CC(=O)N1CC2(CCN(c3nc(OC4CCN(CCCOC)CC4)nc4c(OCC(F)(F)F)c(-c5c(C)ccc6[nH]ncc56)c(C5CC5)cc34)CC2)C1	2.11	4.44
FC(F)(F)c1cccc(Nc2nccc(-c3cnn4nc(-c5ccccc5)ccc34)n2)c1	6.71	> 18
C=C1C(=O)O[C@H]2[C@H]1CC/C(COC(=O)c1ccc3ccccc3c1)=C\CC[C@@]1(C)O[C@@H]21	1.1	2.32
CC[CH2][Sn]([CH2]CC)([O]C(=O)c1cccnc1SC)[O][Sn]([CH2]CC)([CH2]CC)[O]C(=O)c1cccnc1SC	0.427	0.97
Oc1ccc(CN2CCC(N3CCCCC3)CC2)c2cccnc12	5.95	> 100
CC[C@@]1(O)C(=O)OCc2c1cc1n(c2=O)Cc2c-1nc1cc3c(cc1c2CCl)OCO3	< 0.01	0.0322
CC1(C)OC2[C@@H](CNC(=O)NC(=O)NC(=O)CI)O[C@@H](n3cnc4c(NC(=O)Nc5ccccc5)ncnc43)[C@H]2O1 (some centres undefined)	6.94	14.7
COc1cc(C2=C(c3ccccc3)COC2=O)cc(OC)c1OC	> 43.5	> 100
COc1cc(C2NC(=O)c3ccccc3N2)ccc1OCCCCCOc1c(OC)cc(C2=NOC(c3cc(OC)c(OC)c(OC)c3)C2)cc1OC (centres undefined)	0.556	> 100
O=C1Nc2c(C(F)(F)F)cccc2[C@]1(c1ccc(O)cc1)c1ccc(OC(F)(F)F)cc1	9.82	21.5
CS(=O)(=O)c1ccc([C@H]2O[C@@H](CO)C[C@]2(O)c2ccc(S(C)(=O)=O)cc2)cc1	> 100	> 100
CC(=O)OC[C@]1(C)C=C2C(=O)[C@](C)(O)C3(CC3)C(C)=C2[C@H]1O	0.0221	0.0501
Oc1ccc(NCc2nc3ccccc3[nH]2)cc1	> 100	> 100
O=C1c2cc(Cl)ccc2S(=O)(=O)c2c(NCCCNCCO)nc3ccccc3c21	0.493	1.63
CC(C)(C)OC(=O)N1CCc2c(sc3ncnc(N/N=C/c4cccc5ccccc45)c23)C1	3.24	78.5
CC[C@@H]1CN(C)[C@H]2Cc3c([nH]c4ccccc34)C(=O)C[C@H]1C2C(=O)OC (some centres undefined)	–	> 100
CCN(CC)c1ccc(/C=C/c2ccc3cc(C)ccc3[n+]2CC)cc1	0.336	5.67
Cc1ccc2c(c1)[n+]([O-])c(N)n[n+]2[O-]	–	> 100
COC1/C=C\C=C(/C)C(=O)NC2=CC(=O)C(=O)C(=C2O)CC(C)CC(OC)C(O)C(C)/C=C(\C)C1OC(N)=O (centres undefined)	–	> 82.1
O=c1[nH]ncc(Br)c1Br	1.79	3.17
COc1ccc(-c2cc(=O)c3c(OC)c(OC)c(OC)cc3o2)cc1	–	> 100

The molecules below were run on CAKI-1 renal (assay: NCI tumour cell line growth inhibition, 48 h).

SMILES	GI50 [µM]	TGI [µM]
C=CC(=O)N1CC2(CCN(c3nc(OC4CCN(CCCOC)CC4)nc4c(OCC(F)(F)F)c(-c5c(C)ccc6[nH]ncc56)c(C5CC5)cc34)CC2)C1	4.15	15.2
FC(F)(F)c1cccc(Nc2nccc(-c3cnn4nc(-c5ccccc5)ccc34)n2)c1	10.2	> 25
C=C1C(=O)O[C@H]2[C@H]1CC/C(COC(=O)c1ccc3ccccc3c1)=C\CC[C@@]1(C)O[C@@H]21	1.22	2.46
CC[CH2][Sn]([CH2]CC)([O]C(=O)c1cccnc1SC)[O][Sn]([CH2]CC)([CH2]CC)[O]C(=O)c1cccnc1SC	0.266	0.801
Oc1ccc(CN2CCC(N3CCCCC3)CC2)c2cccnc12	33.8	> 100
CC[C@@]1(O)C(=O)OCc2c1cc1n(c2=O)Cc2c-1nc1cc3c(cc1c2CCl)OCO3	< 0.01	0.477
CC1(C)OC2[C@@H](CNC(=O)NC(=O)NC(=O)CI)O[C@@H](n3cnc4c(NC(=O)Nc5ccccc5)ncnc43)[C@H]2O1 (some centres undefined)	0.79	1.56
COc1cc(C2=C(c3ccccc3)COC2=O)cc(OC)c1OC	0.585	> 27.7
COc1cc(C2NC(=O)c3ccccc3N2)ccc1OCCCCCOc1c(OC)cc(C2=NOC(c3cc(OC)c(OC)c(OC)c3)C2)cc1OC (centres undefined)	> 42.4	> 100
O=C1Nc2c(C(F)(F)F)cccc2[C@]1(c1ccc(O)cc1)c1ccc(OC(F)(F)F)cc1	10.1	22.7
CS(=O)(=O)c1ccc([C@H]2O[C@@H](CO)C[C@]2(O)c2ccc(S(C)(=O)=O)cc2)cc1	> 100	> 100
CC(=O)OC[C@]1(C)C=C2C(=O)[C@](C)(O)C3(CC3)C(C)=C2[C@H]1O	0.041	2.58
Oc1ccc(NCc2nc3ccccc3[nH]2)cc1	> 100	> 100
O=C1c2cc(Cl)ccc2S(=O)(=O)c2c(NCCCNCCO)nc3ccccc3c21	1.18	2.4
CC(C)(C)OC(=O)N1CCc2c(sc3ncnc(N/N=C/c4cccc5ccccc45)c23)C1	3.35	> 100
CC[C@@H]1CN(C)[C@H]2Cc3c([nH]c4ccccc34)C(=O)C[C@H]1C2C(=O)OC (some centres undefined)	–	> 100
CCN(CC)c1ccc(/C=C/c2ccc3cc(C)ccc3[n+]2CC)cc1	2.03	12
Cc1ccc2c(c1)[n+]([O-])c(N)n[n+]2[O-]	–	> 100
COC1/C=C\C=C(/C)C(=O)NC2=CC(=O)C(=O)C(=C2O)CC(C)CC(OC)C(O)C(C)/C=C(\C)C1OC(N)=O (centres undefined)	–	> 42
O=c1[nH]ncc(Br)c1Br	1.44	2.74
COc1ccc(-c2cc(=O)c3c(OC)c(OC)c(OC)cc3o2)cc1	–	> 100

These molecules were tested on IGROV1 ovarian (assay: NCI tumour cell line growth inhibition, 48 h).

SMILES	GI50 [µM]	TGI [µM]
C=CC(=O)N1CC2(CCN(c3nc(OC4CCN(CCCOC)CC4)nc4c(OCC(F)(F)F)c(-c5c(C)ccc6[nH]ncc56)c(C5CC5)cc34)CC2)C1	6.88	21.3
FC(F)(F)c1cccc(Nc2nccc(-c3cnn4nc(-c5ccccc5)ccc34)n2)c1	11.4	> 25
C=C1C(=O)O[C@H]2[C@H]1CC/C(COC(=O)c1ccc3ccccc3c1)=C\CC[C@@]1(C)O[C@@H]21	0.703	2.19
CC[CH2][Sn]([CH2]CC)([O]C(=O)c1cccnc1SC)[O][Sn]([CH2]CC)([CH2]CC)[O]C(=O)c1cccnc1SC	1.26	3.79
Oc1ccc(CN2CCC(N3CCCCC3)CC2)c2cccnc12	23.4	> 100
CC[C@@]1(O)C(=O)OCc2c1cc1n(c2=O)Cc2c-1nc1cc3c(cc1c2CCl)OCO3	0.139	5.75
CC1(C)OC2[C@@H](CNC(=O)NC(=O)NC(=O)CI)O[C@@H](n3cnc4c(NC(=O)Nc5ccccc5)ncnc43)[C@H]2O1 (some centres undefined)	2.15	8.6
COc1cc(C2=C(c3ccccc3)COC2=O)cc(OC)c1OC	5.82	> 56.5
COc1cc(C2NC(=O)c3ccccc3N2)ccc1OCCCCCOc1c(OC)cc(C2=NOC(c3cc(OC)c(OC)c(OC)c3)C2)cc1OC (centres undefined)	0.601	> 71
O=C1Nc2c(C(F)(F)F)cccc2[C@]1(c1ccc(O)cc1)c1ccc(OC(F)(F)F)cc1	9.42	23.4
CS(=O)(=O)c1ccc([C@H]2O[C@@H](CO)C[C@]2(O)c2ccc(S(C)(=O)=O)cc2)cc1	> 100	> 100
CC(=O)OC[C@]1(C)C=C2C(=O)[C@](C)(O)C3(CC3)C(C)=C2[C@H]1O	0.0457	0.364
Oc1ccc(NCc2nc3ccccc3[nH]2)cc1	76.4	> 100
O=C1c2cc(Cl)ccc2S(=O)(=O)c2c(NCCCNCCO)nc3ccccc3c21	2.88	9.56
CC(C)(C)OC(=O)N1CCc2c(sc3ncnc(N/N=C/c4cccc5ccccc45)c23)C1	3.94	> 100
CC[C@@H]1CN(C)[C@H]2Cc3c([nH]c4ccccc34)C(=O)C[C@H]1C2C(=O)OC (some centres undefined)	–	> 100
CCN(CC)c1ccc(/C=C/c2ccc3cc(C)ccc3[n+]2CC)cc1	0.201	18.1
Cc1ccc2c(c1)[n+]([O-])c(N)n[n+]2[O-]	–	> 100
COC1/C=C\C=C(/C)C(=O)NC2=CC(=O)C(=O)C(=C2O)CC(C)CC(OC)C(O)C(C)/C=C(\C)C1OC(N)=O (centres undefined)	–	> 100
O=c1[nH]ncc(Br)c1Br	1.72	3.68
COc1ccc(-c2cc(=O)c3c(OC)c(OC)c(OC)cc3o2)cc1	–	> 100

Each molecule was assayed on MDA-MB-435 (assay: NCI tumour cell line growth inhibition, 48 h).

SMILES	GI50 [µM]	TGI [µM]
C=CC(=O)N1CC2(CCN(c3nc(OC4CCN(CCCOC)CC4)nc4c(OCC(F)(F)F)c(-c5c(C)ccc6[nH]ncc56)c(C5CC5)cc34)CC2)C1	1.85	4
FC(F)(F)c1cccc(Nc2nccc(-c3cnn4nc(-c5ccccc5)ccc34)n2)c1	10.4	> 25
C=C1C(=O)O[C@H]2[C@H]1CC/C(COC(=O)c1ccc3ccccc3c1)=C\CC[C@@]1(C)O[C@@H]21	1.1	2.45
CC[CH2][Sn]([CH2]CC)([O]C(=O)c1cccnc1SC)[O][Sn]([CH2]CC)([CH2]CC)[O]C(=O)c1cccnc1SC	1.54	2.89
Oc1ccc(CN2CCC(N3CCCCC3)CC2)c2cccnc12	4.63	> 100
CC[C@@]1(O)C(=O)OCc2c1cc1n(c2=O)Cc2c-1nc1cc3c(cc1c2CCl)OCO3	0.0592	2.24
CC1(C)OC2[C@@H](CNC(=O)NC(=O)NC(=O)CI)O[C@@H](n3cnc4c(NC(=O)Nc5ccccc5)ncnc43)[C@H]2O1 (some centres undefined)	7.57	14.8
COc1cc(C2=C(c3ccccc3)COC2=O)cc(OC)c1OC	0.168	0.645
COc1cc(C2NC(=O)c3ccccc3N2)ccc1OCCCCCOc1c(OC)cc(C2=NOC(c3cc(OC)c(OC)c(OC)c3)C2)cc1OC (centres undefined)	0.499	> 100
O=C1Nc2c(C(F)(F)F)cccc2[C@]1(c1ccc(O)cc1)c1ccc(OC(F)(F)F)cc1	13.6	26.6
CS(=O)(=O)c1ccc([C@H]2O[C@@H](CO)C[C@]2(O)c2ccc(S(C)(=O)=O)cc2)cc1	> 100	> 100
CC(=O)OC[C@]1(C)C=C2C(=O)[C@](C)(O)C3(CC3)C(C)=C2[C@H]1O	0.136	0.587
Oc1ccc(NCc2nc3ccccc3[nH]2)cc1	> 100	> 100
O=C1c2cc(Cl)ccc2S(=O)(=O)c2c(NCCCNCCO)nc3ccccc3c21	1.5	3.13
CC(C)(C)OC(=O)N1CCc2c(sc3ncnc(N/N=C/c4cccc5ccccc45)c23)C1	2.47	7.31
CC[C@@H]1CN(C)[C@H]2Cc3c([nH]c4ccccc34)C(=O)C[C@H]1C2C(=O)OC (some centres undefined)	–	> 100
CCN(CC)c1ccc(/C=C/c2ccc3cc(C)ccc3[n+]2CC)cc1	0.113	1.28
Cc1ccc2c(c1)[n+]([O-])c(N)n[n+]2[O-]	–	> 100
COC1/C=C\C=C(/C)C(=O)NC2=CC(=O)C(=O)C(=C2O)CC(C)CC(OC)C(O)C(C)/C=C(\C)C1OC(N)=O (centres undefined)	–	11.8
O=c1[nH]ncc(Br)c1Br	2.2	6.2
